# In PubChem BioAssay AID720587 (Broad Institute, 2013):
# “And” between values parts separate entries of the source, which are not always exact repeats. Equal values may be shown once.
# System: A673 Ewing sarcoma viability, CellTiter-Glo ATP luminescence, 72 h
# Assay: EWS/Fli1-dependent A673 cell killing, confirmation, CellTiter-Glo luminescence, cherry-pick retest (AID 720587)
row,SMILES,AC35
1,CCN(CC)c1ccc(C2NC(=O)c3ccccc3N2)cc1 (stereo not drawn),21.6 µM
2,O=C1Nc2cc(C(=O)NCCN3CCCCCC3)ccc2S/C1=C\c1ccccc1,8.37 µM
3,Cc1nc(N)nc(N)c1/C=C/C(C)(C)c1ccc(Cl)cc1,< 0.011 µM
4,Cc1ccc(/C=C2\SC(=S)N(CCCC(=O)NNC(=O)c3ccccc3O)C2=O)cc1,11.3 µM
5,C[C@H]1CN([C@@H](C)CO)C(=O)Cc2cc(NC(=O)CCCCCC(=O)Nc3ccccc3N)ccc2O[C@H]1CN(C)Cc1ccc(Oc2ccccc2)cc1,6.08 µM
6,Nc1nc(=S)c2[nH]cnc2[nH]1,0.814 µM
7,NC1=CC(=O)C(=O)c2cccnc21,11.1 µM
8,Cc1cc(C)cc(C(=O)NC(=S)Nc2ccc(Cc3ccncc3)cc2)c1,14.2 µM
9,O=c1[nH]c(=O)n([C@H]2C[C@H](O)[C@@H](CO)O2)cc1F,0.0545 µM
10,C[C@]12CC[C@H]3[C@@H](CC[C@]4(O)C[C@@H](O)CC[C@]34C=O)[C@@]1(O)CC[C@@H]2C1=CC(=O)OC1,0.641 µM
11,COc1ccc(N=C2C(=O)Nc3ccc(C)c(Br)c32)cc1,17 µM
12,Cc1ccc(S(=O)(=O)N(C)C[C@@H]2Oc3cc(C#Cc4ccncc4)ccc3S(=O)(=O)N([C@@H](C)CO)C[C@H]2C)cc1,21.1 µM
13,O=C(C1CC1)N1C[C@@H]2N[C@H](C1)C2c1ccc(/C=C/c2ccccc2)cc1 (stereo partly drawn),15.2 µM
14,Cc1ccc2c(=O)n3c(nc2c1)C(Cc1ccc(O)cc1)NC(=O)c1cc2ccccc2cc1-3 (stereo not drawn),7.13 µM
15,COc1ccc(CC(N)c2csc(NC(=O)Nc3cccc(C(F)(F)F)c3)n2)cc1 (stereo not drawn),6.74 µM
16,C[C@H](CO)N1C[C@H](C)[C@H](CN(C)Cc2ccccc2)Oc2ccc(NC(=O)CCCCCC(=O)Nc3ccccc3N)cc2CC1=O,15.7 µM
17,O=C(CCCN1C(=O)/C(=C/c2ccccc2Cl)SC1=S)NNC(=O)c1ccc(Cl)cc1,23.9 µM
18,CCCCNC1=CC(=O)C(=O)c2ccccc21,2.77 µM
19,O=C(Nc1cccc(S(=O)(=O)N2CCCC2)c1)c1ccc(Cl)nc1,6.28 µM
20,CCN1CCS/C1=C\C=C\C1=[N+](CC)CCS1,16.1 µM
21,Cn1ccc2cc(-c3ccc4ncnc(NCc5cccs5)c4c3)ccc21,4.58 µM
22,C[C@H](CO)N1C[C@H](C)[C@H](CN(C)Cc2ccc(C(F)(F)F)cc2)Oc2ccc(NC(=O)CCCCCC(=O)Nc3ccccc3N)cc2CC1=O,7.93 µM
23,O=C1NC(=O)N(Cc2ccccc2)C(=O)/C1=C\C=C\c1ccco1,5.05 µM
24,C[C@@H]1O[C@@H](O[C@@H]2C=C3CC[C@@H]4C(CC[C@]5(C)[C@@H](c6ccc(=O)oc6)CC[C@]45O)[C@@]3(C)CC2)[C@H](O)[C@H](O)[C@H]1O (stereo partly drawn),0.0233 µM

row,SMILES,AC35
1,COc1cccc(-c2cc(NC=O)c3ncc(-c4ccc(C(C)=O)cc4)n3c2)c1,4.09 µM
2,Nc1nc(N)c(-c2cccc(C(F)(F)F)c2)c(Cc2cccc(C(F)(F)F)c2)n1,5.72 µM
3,N#CC1=C(N)Oc2cc(N)ccc2C1c1cccc(Br)c1 (stereo not drawn),0.505 µM
4,CCc1nc(N)nc(N)c1-c1ccc(Cl)c(N=[N+]=[N-])c1,7.14 µM
5,CC(C)=CCC/C(C)=C/CN1C(=O)N(c2ccc(F)cc2)[C@H]2C[C@@H](c3ccccc3)[C@@H](C)[C@@H](C(=O)N3CCOCC3)C[C@H]21,5.03 µM
6,COc1cc(/C=C/C(=O)/C=C(O)/C=C/c2ccc(O)c(OC)c2)ccc1O,2.13 µM
7,CC(=O)Oc1ccc(-c2ccc(C(=O)Nc3cccc(S(=O)(=O)N4CCOCC4)c3)cc2)cc1,15.3 µM
8,C=C1C(=O)C=C[C@]2(C)C[C@@H]3OC(=O)[C@](C)(O)[C@H]3C[C@@H]12,4.67 µM
9,COC(=O)C[C@H]1CC[C@@H]2[C@H](COc3ccc(NC(=O)Nc4cccc(Cl)c4)cc3C(=O)N2C)O1,14.1 µM
10,CN(c1ccc(NC(=O)CCc2c[nH]c3ccccc23)cc1)c1ccccn1,9.08 µM
11,C[C@@H]1CN([C@H](C)CO)C(=O)c2cccc(N(C)C)c2O[C@@H]1CN(C)Cc1ccc(C(=O)Nc2ccccc2N)cc1,19.6 µM
12,CC1OC(OC2CC(O)C3(CO)C4C(O)CC5(C)C(C6=CC(=O)OC6)CCC5(O)C4CCC3(O)C2)C(O)C(O)C1O (stereo not drawn),0.105 µM
13,COC(=O)C[C@@H]1CC[C@@H]2[C@H](COc3ccc(NC(=O)c4cc(C)on4)cc3C(=O)N2C)O1,14.5 µM
14,CC(=NNc1ccc2ccccc2n1)c1ccccc1O,13.9 µM
15,C[C@H](CO)N1C[C@H](C)[C@H](CN(C)CC2CCCCC2)Oc2ccc(NC(=O)CCCCCC(=O)Nc3ccccc3N)cc2CC1=O,10.5 µM
16,COc1ccccc1-c1ccc(OCCCN2CCC(C(O)(c3ccccc3)c3ccccc3)CC2)cc1,9.43 µM
17,COc1ccc(OC)c(Cc2cnc3nc(N)nc(N)c3c2C)c1,0.196 µM
18,COc1ccc(C2c3cc4c(cc3OC(NNC(N)=O)C2C)OCO4)cc1 (stereo not drawn),12.4 µM
19,CCCCCCCN(c1ccccc1)[C@@H]1C[C@H]2CCCC(=O)N3CC[C@@H](C1)[C@@H]23,10.2 µM
20,CCOc1cc(N2CCC(O)CC2)ccc1Nc1ncc2c(n1)N(C)c1ccccc1C(=O)N2C,21 µM
21,Cc1sc2nc(CN3CCC(C)CC3)nc(Cl)c2c1C,10.7 µM
22,C(=N\Nc1nc2ccccc2s1)/c1ccccn1,0.696 µM
23,CC12CCC3C(CCC4(O)CC(O)CCC34C=NO)C1(O)CCC2C1=COC(=O)C1 (stereo not drawn),0.251 µM
24,CCN1C/C(=C/c2ccc(OC)c(O)c2)C(=O)/C(=C/c2ccc(OC)c(O)c2)C1,11.1 µM

row,SMILES,AC35
1,COc1cc(C(=O)N2CCC(N3CCN(C)CC3)CC2)ccc1Nc1ncc2c(n1)N(C)c1ccccc1C(=O)N2C,10 µM
2,Nc1nc(N)c2cc(Sc3ccc4ccccc4c3)ccc2n1,3.35 µM
3,N#CC1C=Cc2c(ccc3ccccc23)N1C(=O)c1ccccc1 (stereo not drawn),9.42 µM
4,Cc1nc(N)nc(N)c1-c1ccc(Cl)c(Cl)c1,0.928 µM
5,CCCCCCCCn1c2c(c(=N)c3c1CCC3)CCCC2,5.07 µM
6,C[C@H]1CN([C@@H](C)CO)C(=O)Cc2cc(NC(=O)CCCCCC(=O)Nc3ccccc3N)ccc2O[C@H]1CN(C)Cc1ccc(Cl)c(Cl)c1,10.2 µM
7,COc1ccccc1NC(=O)N1CCCCN2[C@H](CO)[C@H](c3ccc(-c4cccc(C)c4)cc3)[C@H]2C1,9.29 µM
8,CCOC(=O)[C@]12Cc3ccc(C)cc3[C@H]1N(C1CCCCC1)C(=O)c1ccccc12,5.01 µM
9,COC(=O)C1=C(C)N(Cc2ccccc2C(F)(F)F)C(=NCc2ccc(OC)cc2)NC1c1ccc(C(F)(F)F)cc1 (stereo not drawn),13.1 µM
10,C[C@H]1CN([C@@H](C)CO)S(=O)(=O)c2ccc(C#CC(C)(C)O)cc2O[C@@H]1CN(C)Cc1ccc(-c2ccccc2)cc1,0.656 µM
11,CN(C)C(=S)N=Nc1[nH]c2ccccc2c1O,11.1 µM
12,O=C(c1cccc(S(=O)(=O)NCc2ccccc2)c1)N1CCN(c2ccccc2)CC1,20.8 µM
13,CC(=NNc1ccc2ccccc2n1)c1ccccn1,0.234 µM
14,COc1ccc(/C=C2/NC(=O)N(CC(=O)Nc3cccc(C)c3)C2=O)cc1O,18.8 µM
15,O=c1[nH]c(=O)n(C2C[C@H](O)[C@@H](CO)O2)cc1C(F)(F)F (stereo partly drawn),3.17 µM
16,COc1ccc(-c2cn(-c3ccc(OC)cc3)c3[n+]2-c2ccccc2CC3)cc1,13.6 µM
17,C[C@H]1CN([C@@H](C)CO)C(=O)c2cccc(NC(=O)CCCCCC(=O)Nc3ccccc3N)c2O[C@@H]1CN(C)Cc1ccc2c(c1)OCO2,23.6 µM
18,C[C@@H]1CN([C@@H](C)CO)C(=O)c2cc(NS(=O)(=O)c3ccc(F)cc3)ccc2O[C@@H]1CN(C)Cc1ccc(C(=O)Nc2ccccc2N)cc1,11.3 µM
19,CC1=NN(c2ccccc2)C(=O)/C1=C\C=C\c1ccccc1,3.99 µM
20,C=C(C(=O)c1ccccc1)C(C)C(=C)C(=O)c1ccccc1,4.81 µM
21,CC(C)N1C/C(=C/c2cccnc2)C(=O)/C(=C/c2cccnc2)C1,10.5 µM
22,C[C@@H]1CN([C@H](C)CO)C(=O)c2cc(N(C)C)ccc2O[C@H]1CN(C)Cc1ccc(C(=O)Nc2ccccc2N)cc1,16.7 µM
23,C(=Cc1nc2ccccc2o1)c1ccc2c(c1)OCO2,19 µM
24,Cc1cccc(/C=N/Nc2ccc3ccccc3n2)c1,18.9 µM

row,SMILES,AC35
1,Cc1nc(N)nc(N)c1CCCc1ccc(Cl)c(Cl)c1,2.8 µM
2,COc1cccc(OC)c1C(=O)Nc1cc(C)nn1-c1nc2ccccc2[nH]1,13.2 µM
3,O=c1ccc2[n+]([O-])c3ccc(O)cc3oc-2c1,8.92 µM
4,COc1ccc(NC(=S)N=Nc2c(O)[nH]c3ccccc23)cc1,1.75 µM
5,COC(=O)C[C@@H]1CC[C@@H]2[C@@H](COc3ccc(NC(=O)Nc4ccc(C#N)cc4)cc3C(=O)N2C)O1,9.7 µM
6,COc1ccc(C2=Nn3c([n+](C)c4ccccc43)SC2)cc1,20.2 µM
7,CC[C@@H]1C[C@H]2CC[C@H](O2)[C@H](C)C(=O)O[C@@H](C)C[C@@H]2CC[C@@H](O2)[C@@H](C)C(=O)O[C@H](C)C[C@H]2CC[C@H](O2)[C@H](C)C(=O)O[C@@H](C)C[C@@H]2CC[C@@H](O2)[C@@H](C)C(=O)O1,0.243 µM
8,O=C1NC(=O)N(Cc2ccco2)C(=O)/C1=C/C=C/c1ccco1,5.61 µM
9,CC(C)c1ccc(OCc2cccc(C(=O)N/N=C/c3cccnc3)c2)cc1,19.4 µM
10,CC(C)(C)c1ccc(Cn2c(=O)cnc3ccccc32)cc1,12.5 µM
11,Oc1c(Cl)cc(Cl)c(Cl)c1Cc1c(O)c(Cl)cc(Cl)c1Cl,15.9 µM
12,C[C@H](O)C#Cc1ccc2c(c1)O[C@@H](CN(C)Cc1ccc(-c3ccccc3)cc1)[C@H](C)CN([C@@H](C)CO)S2(=O)=O,5.46 µM and 7.12 µM
13,C(=NNc1ccc2ccccc2n1)c1ccccn1,0.514 µM
14,O=C1/C(=C\c2ccccc2)CN(C(=O)CCN2CCCCC2)C/C1=C/c1ccccc1,0.734 µM
15,C[C@]12CC[C@H](O)C[C@H]1CC[C@@H]1C2CC[C@]2(C)[C@@H](C3=CC(=O)OC3)[C@@H](O)C[C@]12O (stereo partly drawn),5.27 µM
16,C=C1C(=O)O[C@@H]2[C@H]1[C@@H](OC(=O)/C(C)=C/C)C/C(C)=C\C(=O)/C=C(\C)[C@@H]2O,3.23 µM
17,Cc1ccc(S(=O)(=O)N(C)C[C@@H]2Oc3ccc(NC(=O)CCCCCC(=O)Nc4ccccc4N)cc3CC(=O)N([C@@H](C)CO)C[C@@H]2C)cc1,15.3 µM
18,COC(=O)C1=C(C)N(Cc2cccc(C(F)(F)F)c2)C(=NCc2ccc(OC)cc2)NC1c1cccc(F)c1 (stereo not drawn),4.46 µM
19,COC(=O)C[C@@H]1CC[C@@H]2[C@@H](COc3ccc(NC(=O)Nc4ccccc4C)cc3C(=O)N2C)O1,19.7 µM
20,C[C@H]1CN([C@@H](C)CO)C(=O)Cc2cc(NC(=O)CCC(F)(F)F)ccc2O[C@H]1CN(C)Cc1ccc(C(=O)Nc2ccccc2N)cc1,8.75 µM
21,COC(=O)C[C@H]1CC[C@H]2[C@H](COc3ccc(NC(=O)Nc4cccc(Cl)c4)cc3C(=O)N2C)O1,13.6 µM
